molecular target: Recombinant human LSD1 (Homo sapiens, UniProt O60341); test: LSD1 inhibition assay (HTRF LSD1 Histone H3K4 mono-demethylation assay, me1->me0); format: biochemical; settings: 20 nM recombinant human LSD1, 95 nM H3K4(me1) biotinylated peptide, 15 min preincubation, 60 min at 25° C., read-out: LSD1 inhibition IC50 (nM range)
In short: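 HTRF demethylation (me1->me0) read-out: streptavidin-XL665 and anti-H3K4me0 cryptate added after reaction, ratio measured after 90 min dark. Reaction: 95 nM H3K4me1 biotin-peptide, 20 nM LSD1 (15-min compound pre-incubation), 60 min, 25 °C, buffer pH 8.5 plus FAD and DTT; 4-parameter logistic IC50.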

SMILES | IC50 [nM]
N#Cc1ccc(-c2cccc(CN3C[C@H]4C[C@@H]3CCN4)c2C2CC2)cc1F [Example 322, 2'-cyclopropyl-3'-{[(1R,5S)-2,6-diazabicyclo[3.2.1]octan-6-yl]methyl}-3-fluoro-[1,1'-biphenyl]-4-carbonitrile] | 25 to 100
CCC1(O)CCN(c2ccc(CC3CNCCO3)cc2-c2ccc(C#N)c(F)c2)CC1 (stereo not drawn) [Example 33, 2′-(4-ethyl-4-hydroxypiperidin-1-yl)-3-fluoro-5′-[(morpholin-2-yl)methyl]-[1,1′-biphenyl]-4-carbonitrile] | 25 to 100
CC(C)Oc1c(CN2[C@@H]3CC[C@H]2[C@@H](N)C3)cccc1-c1ccc(C#N)c(F)c1 (racemic) [Example 213] | 25 to 100
N#Cc1ccc(-c2cc(C[C@@H]3CN4CCC[C@H]4CO3)ccc2N2CCC2)cc1F [Example 131, 5′-{[(3R,8aS)-hexahydro-1H-pyrrolo[2,1-c][1,4]oxazin-3-yl]methyl}-2′-(azetidin-1-yl)-3-fluoro-[1,1′-biphenyl]-4-carbonitrile] | > 1000
N#Cc1ccc(-c2cccc(CN3CCCC(N)C3)c2Cl)cc1F (stereo not drawn) [Example 332, 3'-[(3-aminopiperidin-1-yl)methyl]-2'-chloro-3-fluoro-[1,1'-biphenyl]-4-carbonitrile] | 100 to 1000
N#Cc1ccc(-c2cccc(CC3CNCCO3)c2-c2ccns2)cc1F (stereo not drawn) [Example 36, 3-fluoro-3′-[(morpholin-2-yl)methyl]-2′-(1,2-thiazol-5-yl)-[1,1′-biphenyl]-4-carbonitrile] | 10 to 25
Cc1ncoc1-c1c(CC2CNCCO2)cccc1-c1ccc(C#N)c(F)c1 (stereo not drawn) [Example 51, 3-fluoro-2′-(4-methyl-1,3-oxazol-5-yl)-3′-[(morpholin-2-yl)methyl]-[1,1′-biphenyl]-4-carbonitrile] | 25 to 100
Cc1cc(CN2[C@@H]3CC[C@H]2[C@@H](N)C3)c(C2CC2)c(-c2ccc(C#N)c(F)c2)c1 (racemic) [Example 304, 3'-{[(1S,2S,4R)-2-amino-7-azabicyclo[2.2.1]heptan-7-yl]methyl}-2'-cyclopropyl-3-fluoro-5'-methyl-[1,1'-biphenyl]-4-carbonitrile] | 10 to 25
N#Cc1ccc(-c2cccc(CN3[C@@H]4CC[C@H]3[C@@H](N)C4)c2C2=CCOCC2)cc1F (racemic) [Example 249, 3'-{[(1S,2S,4R)-2-amino-7-azabicyclo[2.2.1]heptan-7-yl]methyl}-2'-(3,6-dihydro-2H-pyran-4-yl)-3-fluoro-[1,1'-biphenyl]-4-carbonitrile] | 25 to 100
N#Cc1ccc(-c2cccc(CN3[C@@H]4CC[C@H]3[C@H](N)C4)c2C2CC2)cc1F (racemic) [Example 319, 3'-{[(1S,2R,4R)-2-amino-7-azabicyclo[2.2.1]heptan-7-yl]methyl}-2'-cyclopropyl-3-fluoro-[1,1'-biphenyl]-4-carbonitrile] | 25 to 100
N#Cc1ccc(-c2cccc(CN3CC4CNC(C4)C3)c2Cl)cc1F (stereo not drawn) [Example 284, 2'-chloro-3'-({3,6-diazabicyclo[3.2.1]octan-3-yl}methyl)-3-fluoro-[1,1'-biphenyl]-4-carbonitrile] | 100 to 1000
N#Cc1ccc(-c2cccc(CN3C[C@]4(N)CC[C@H]3C4)c2-c2scnc2Cl)cc1F [Example 188, 3'-{[(1S,4S)-4-amino-2-azabicyclo[2.2.1]heptan-2-yl]methyl}-2'-(4-chloro-1,3-thiazol-5-yl)-3-fluoro-[1,1'-biphenyl]-4-carbonitrile] | 10 to 25
N#Cc1ccc(-c2cc(CC3CNCCO3)ccc2C2CCOCC2)cc1F (stereo not drawn) [Example 158, 3-fluoro-5′-[(morpholin-2-yl)methyl]-2′-(oxan-4-yl)-[1,1′-biphenyl]-4-carbonitrile] | > 1000
N#Cc1ccc(-c2cccc(C[C@H]3CNCCO3)c2-c2ocnc2F)cc1F [Example 15, 3-fluoro-2′-(4-fluoro-1,3-oxazol-5-yl)-3′-{[(2S)-morpholin-2-yl]methyl}-[1,1′-biphenyl]-4-carbonitrile] | < 10

Now from value to molecule:

IC50 [nM] | SMILES
25 to 100 | Cn1ncc2cc(-c3ccc(CC4CNCCO4)cc3-c3ccc(C#N)c(F)c3)cnc21 (stereo not drawn) [Example 56, 3-fluoro-2′-{1-methyl-1H-pyrazolo[3,4-b]pyridin-5-yl}-5′-[(morpholin-2-yl)methyl]-[1,1′-biphenyl]-4-carbonitrile]
100 to 1000 | CN[C@@H]1CCN(Cc2cccc(-c3ccc(C#N)c(F)c3)c2C2CC2)C1 [Example 228, 2'-cyclopropyl-3-fluoro-3'-{[(3R)-3-(methylamino)pyrrolidin-1-yl]-methyl}-[1,1'-biphenyl]-4-carbonitrile]
> 1000 | Cc1cc(NC[C@@H]2CNCCO2)c(Cl)c(-c2ccc(C#N)c(F)c2)c1 (single isomer, unassigned) [Example 87]
100 to 1000 | COc1ccc(-c2ccc(CC3CNCCO3)cc2-c2ccc(C#N)c(F)c2)nc1 (stereo not drawn) [Example 133, 3-fluoro-2′-(5-methoxypyridin-2-yl)-5′-[(morpholin-2-yl)methyl]-[1,1′-biphenyl]-4-carbonitrile]
100 to 1000 | N#Cc1ccc(-c2ccc(F)c(CN3C[C@@H]4[C@H](N)[C@@H]4C3)c2Cl)cc1F [Example 291, 3'-{[(1R,5S,6S)-6-amino-3-azabicyclo[3.1.0]hexan-3-yl]methyl}-2'-chloro-3,4'-difluoro-[1,1'-biphenyl]-4-carbonitrile]
> 1000 | N#Cc1ccc(-c2cc(CN3CC4(CNCCO4)C3)ccc2N2CCCC2)cc1 [Example 343, 5'-({5-oxa-2,8-diazaspiro[3.5]nonan-2-yl}methyl)-2'-(pyrrolidin-1-yl)-[1,1'-biphenyl]-4-carbonitrile]
100 to 1000 | N#Cc1ccc(-c2cccc(CN3CCC4(CCCN4)C3)c2C2CC2)cc1F (stereo not drawn) [Example 266, Fc1cc(ccc1C#N)c2cccc(CN3CCC4(CCCN4)C3)c2C5CC5]
10 to 25 | CNC1CCN(c2cccc(-c3ccc(C#N)c(F)c3)c2-c2cncs2)CC1 [Example 116, 3-fluoro-3'-[4-(methylamino)piperidin-1-yl]-2'-(1,3-thiazol-5-yl)-[1,1'-biphenyl]-4-carbonitrile]
100 to 1000 | COC1CCN(c2ccc(CC3CNCCO3)cc2-c2ccc(C#N)c(F)c2)CC1 (stereo not drawn) [Example 52, 3-fluoro-2′-(4-methoxypiperidin-1-yl)-5′-[(morpholin-2-yl)methyl]-[1,1′-biphenyl]-4-carbonitrile]
10 to 25 | N#Cc1ccc(-c2cccc(CC3CNCCO3)c2-c2ccns2)cc1 (stereo not drawn) [Example 1, 3′-[(morpholin-2-yl)methyl]-2′-(1,2-thiazol-5-yl)-[1,1′-biphenyl]-4-carbonitrile]
> 1000 | CCc1cc(CC2CNCCO2)cc(-c2ccc(C#N)cc2)c1Cl (stereo not drawn) [Example 161, 2′-chloro-3′-ethyl-5′-[(morpholin-2-yl)methyl]-[1,1′-biphenyl]-4-carbonitrile]
100 to 1000 | N#Cc1ccc(-c2cccc(CN3CCCC4(CCN4)C3)c2C2CC2)cc1F (stereo not drawn) [Example 267, 2'-cyclopropyl-3'-({1,6-diazaspiro[3.5]nonan-6-yl}methyl)-3-fluoro-[1,1'-biphenyl]-4-carbonitrile]
100 to 1000 | N#Cc1ccc(-c2cccc(CN3CC[C@@H]4NCCC[C@@H]43)c2C2CC2)cc1F [Example 271, Fc1cc(ccc1C#N)c2cccc(CN3CC[C@@H]4NCCC[C@H]34)c2C5CC5]

Reference: patent US20260209214A1, “LSD1 MODULATORS” (RECURSION PHARMACEUTICALS, INC., priority 2022, published 2026)
